This note sets out measurements from the NIST ThermoML archive (doi:10.1016/j.fluid.2006.06.013).

± gives the expanded uncertainty stated by the source.

For data set [1] the following is noted: for vapor or sublimation pressure: Liquid.
A short description of data set [2]: refractive index (Na D-line) (dimensionless). The settings on record: 293.2 K; 101.33 kPa; Liquid; Standard Abbe refractometry.

Consider `O=C1C=CC(=O)O1` [maleic anhydride], for which the Normal melting temperature in data set [1] (Crystal, visual observation) was 52.5 ± 0.5 °C.
As for `COC(=O)c1ccccc1C(=O)OC` [dimethyl 1,2-benzenedicarboxylate], the vapor or sublimation pressure – broadly, the pressure of vapour in equilibrium with the condensed phase – in data set [1] (417.59 K) is 0.934 ± 0.12 kPa; in data set [1] (425.4 K) it was 1.466 ± 0.13 kPa; in data set [1] (435.12 K), 2.21 ± 0.13 kPa; in data set [1] (444.5 K), 3.356 ± 0.13 kPa; in data set [1] (454.9 K), 5.164 ± 0.13 kPa; in data set [1] (466.01 K), 7.823 ± 0.14 kPa. In addition, the “vapor or sublimation pressure” value worked out at 11.13 ± 0.14 kPa in data set [1] (475.82 K); 15.42 ± 0.15 kPa in data set [1] (486.11 K); 20.93 ± 0.15 kPa in data set [1] (496.11 K); 28.7 ± 0.17 kPa in data set [1] (506.87 K); 38.16 ± 0.18 kPa in data set [1] (516.84 K); 48.71 ± 0.2 kPa in data set [1] (525.54 K). Moreover, in data set [2], the refractive index (in general, the speed of light in vacuum divided by its phase velocity in the sample) is on record as 1.516 ± 0.001.
